Experimental findings from article PMC4409382, “Structural Analysis of the 14-3-3ζ/Chibby Interaction Involved in Wnt/β-Catenin Signaling” (PLoS ONE, 2015) are described below.

Square brackets hold non-standard residues; d marks the D form. Ends that are not written are not given here. Peptide text beside a SMILES is read from it. pS = N[C@@H](COP(=O)(O)O)C(=O)O

The target of assay [1] is T1, 14-3-3ζ (Homo sapiens, UniProt P63104).
T1 construct: Both full-length 14-3-3ζ and 14-3-3ζΔC12 were expressed as N-terminally His-tagged protein; His tag (TEV-cleavable) (N, cleaved yes); made in house; host or cells: Escherichia coli BL21 (DE3) pLysS
T1 sequence (P63104 1-245): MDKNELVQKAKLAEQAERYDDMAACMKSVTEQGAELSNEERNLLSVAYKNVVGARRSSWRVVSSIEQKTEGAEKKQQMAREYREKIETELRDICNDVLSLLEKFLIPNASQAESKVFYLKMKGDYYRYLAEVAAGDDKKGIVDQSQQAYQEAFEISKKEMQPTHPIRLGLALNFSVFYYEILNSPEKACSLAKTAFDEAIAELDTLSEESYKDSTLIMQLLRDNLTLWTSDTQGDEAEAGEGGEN
Put plainly: ITC of Cby peptides titrated into 14-3-3ζ. It counts as binding. To be noted: for n (binding stoichiometry of monomeric 14-3-3 and Cby peptide): 25°C; for T∆S / ∆G / ∆H / TΔS / ΔG / ΔH: 298.15 K; for T∆S / ∆G / ∆H: duplicate set (S1 Table); for TΔS / ΔG / ΔH: pH 6.8, Table 1 set of duplicate experiments. From the text: The human14-3-3ζ ORF purchased from GeneCopoeia was transferred into Gateway pDEST17 vector (Invitrogen). The 14-3-3ζΔC12, where the 12 C-terminal residues were deleted, was then generated from the full-length construct using QuikChange II Site-Directed Mutagenesis Kit (Strategene). Both full-length 14-3-3ζ and 14-3-3ζΔC12 were expressed as N-terminally His-tagged protein in Escherichia coli (E. coli) BL21 (DE3) pLysS in M9 medium. For unlabeled protein, protein expression was induced at an O.D.600 of 0.9 by adding 0.75 mM IPTG at 18°C for 24 h. The ^15N, ^13C, ^2H labeled 14-3-3ζΔC12 was produced by growing E. coli in deuterated M9 medium. Cells adapted to 70% D2O were used to inoculate a 1 L culture of M9 prepared in 100% D2O. Cells were grown at 37°C and overexpression was induced at an O.D.600 of 0.6 with 0.75 mM IPTG. After a 60-h induction at 18°C, the cells were harvested. All 14-3-3ζ constructs used in this study were purified from the crude lysate by affinity chromatography using Ni Sepharose Fast Flow beads (Amersham Biosciences). The tag was then cleaved by overnight incubation with His-tagged tobacco etch virus (TEV) protease at 25°C. The cleaved 14-3-3ζ, which retains an N-terminal glycine, was purified by passing the mixture through Ni Sepharose Fast Flow beads. The final yields for the 14-3-3ζ proteins were ~50 mg per L of M9 media (including deuterated media).
The Cby peptides used in this study were purchased from GenScript USA Inc. and the TUFTS University Core Facility. From GenScript USA Inc.: Cby 13-mer (NH2-^12KTPPRKSASLSNL^24-COOH), Cby S20D 13-mer (NH2-^12KTPPRKSADLSNL^24-COOH), Cby S20E 13-mer (NH2-^12KTPPRKSAELSNL^24-COOH), pCby 13-mer (NH2-^12KTPPRKSApSLSNL^24-COOH) and pCby 18-mer ((NH2-^12KTPPRKSApSLSNLHSLDR^29-COOH). From TUFTS: pCby 7-mer (Ac-^16RKSApSLS^22-NH2), pCby 11-mer (NH2-^12KTPPRKSApSLS^22-NH2), pCby S22P 7-mer (Ac-^16RKSApSLP^22-NH2), pCby S22P 13-mer (NH2-^12KTPPRKSApSLPNL^24-COOH) and pCby S22P 18-mer ([…]). Peptides were dissolved and dialyzed in 50 mM sodium phosphate, 100 mM NaCl at pH 6.8 for ITC and NMR experiments.
ITC experiments were performed on a VP-ITC instrument (MicroCal) at 25°C. The protein and peptide samples were dialyzed into a buffer containing 50 mM sodium phosphate, 100 mM NaCl, 1 mM DTT at pH 6.8 and degassed before the experiments. In a typical experiment, 5 μL aliquots of ~1–2 mM peptide were titrated stepwise into the 1.4 mL sample cell containing ~100–200 μM 14-3-3ζ. The association constant (Ka), molar binding stoichiometry (n) and the binding enthalpy (ΔH), entropy (ΔS) and Gibbs free energy (ΔG) were determined by fitting the binding isotherm to a one-site model with MicroCal Origin7 software. All ITC experiments were performed in duplicate. A duplicate set of thermodynamic derived binding parameters are found in S1 Table. Peptide and protein concentrations were determined from amino acid analysis (Amino Acid Analysis Facility, SickKids, Toronto, ON).

Assay [2] deals with T2, 14-3-3ζ (human, full-length) (human, UniProt P63104 1-245).
T2 construct: N-terminal glycine retained after TEV cleavage of the His tag; 14-3-3ζ, human, ORF bought from GeneCopoeia, in Gateway pDEST17; full-length; Dimer in the crystal; the ITC stoichiometry counts on the 14-3-3 monomer; also called WT 14-3-3ζ; source: E. coli BL21 (DE3) pLysS, purified (Ni Sepharose, TEV cleavage, second Ni Sepharose pass); not shown: His tag, N-terminal, cleaved
T2 sequence: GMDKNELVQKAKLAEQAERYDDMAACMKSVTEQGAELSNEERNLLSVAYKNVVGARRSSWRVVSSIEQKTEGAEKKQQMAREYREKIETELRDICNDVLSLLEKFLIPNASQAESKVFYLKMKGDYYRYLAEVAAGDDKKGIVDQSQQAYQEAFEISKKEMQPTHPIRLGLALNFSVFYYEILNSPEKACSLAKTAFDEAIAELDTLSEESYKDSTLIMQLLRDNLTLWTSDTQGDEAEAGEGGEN
Put plainly: ITC; VP-ITC, 25°C; ~1-2 mM peptide titrated in 5 uL aliquots into ~100-200 uM 14-3-3ζ in the cell; 50 mM sodium phosphate, 100 mM NaCl, 1 mM DTT, pH 6.8; one-site model; in duplicate. Particulars: both partners purified.

[3] abbreviates: 50 mM sodium phosphate, 100 mM NaCl, 1 mM DTT, pH 6.8, one-site model, Table 1 set of duplicate experiments.
Where [4] appears, read: pH 6.8, duplicate set (S1 Table).

On to `CC(=O)N[C@@H](CCCNC(=N)N)C(=O)N[C@@H](CCCCN)C(=O)N[C@@H](CO)C(=O)N[C@@H](C)C(=O)N[C@@H](COP(=O)(O)O)C(=O)N[C@@H](CC(C)C)C(=O)N1CCC[C@H]1C(N)=O` [Cby 7-mer S22P] (Ac-RKSA[pS]LP-NH2), for which, in assay [1] (setting [3]), the “n (binding stoichiometry of monomeric 14-3-3 and Cby peptide)” value is listed as 1.03. For the same molecule, the “n (binding stoichiometry of monomeric 14-3-3 and Cby peptide)” value in assay [1] (setting [4]) was determined as 1.02. Also, in assay [1], the “T∆S” value amounted to 5.4 kJ/mol, the “∆G” value was -31.4 ± 0.084 kJ/mol, the “∆H” value is -26 ± 0.084 kJ/mol and the TΔS worked out at 5.82 kJ/mol. Besides, in assay [1], the ΔG is -31.6 ± 0.042 kJ/mol and the ΔH is -25.8 ± 0.042 kJ/mol.
For `CC(C)C[C@H](NC(=O)[C@H](COP(=O)(O)O)NC(=O)[C@H](C)NC(=O)[C@H](CO)NC(=O)[C@H](CCCCN)NC(=O)[C@H](CCCNC(=N)N)NC(=O)[C@@H]1CCCN1C(=O)[C@@H]1CCCN1C(=O)[C@@H](NC(=O)[C@@H](N)CCCCN)[C@@H](C)O)C(=O)N[C@@H](CO)C(N)=O` [Cby 11-mer] (H-KTPPRKSA[pS]LS-NH2), in assay [1], the “greater affinity compared to the Cby 7-mer (fold, in words)” value is “more than two-fold”; the “T∆S” value was determined as 13.5 kJ/mol; the “∆G” value was -27.2 ± 0.084 kJ/mol; the “∆H” value is -13.7 ± 0.084 kJ/mol. In assay [1], this molecule had a TΔS of 13.5 kJ/mol, a ΔG of -27.2 ± 0.084 kJ/mol and a ΔH of -13.6 ± 0.084 kJ/mol. In assay [1] (25°C (298.15 K), 50 mM sodium phosphate, 100 mM NaCl, 1 mM DTT, pH 6.8, one-site model, Table 1 set of duplicate experiments), this molecule came in with a Kd of 17.5 ± 0.6 µM. In assay [1] (setting [3]), the “n (binding stoichiometry of monomeric 14-3-3 and Cby peptide)” value was found to be 0.95. Moreover, the “n (binding stoichiometry of monomeric 14-3-3 and Cby peptide)” value in assay [1] (setting [4]) is listed as 0.96.
On to `CC(=O)N[C@@H](CCCNC(=N)N)C(=O)N[C@@H](CCCCN)C(=O)N[C@@H](CO)C(=O)N[C@@H](C)C(=O)N[C@@H](COP(=O)(O)O)C(=O)N[C@@H](CC(C)C)C(=O)N[C@@H](CO)C(N)=O` [Cby 7-mer] (Ac-RKSA[pS]LS-NH2), for which, in assay [1] (setting [3]), the “n (binding stoichiometry of monomeric 14-3-3 and Cby peptide)” value came to 1.01. Moreover, in assay [1] (setting [4]), the “n (binding stoichiometry of monomeric 14-3-3 and Cby peptide)” value turned out to be 0.94. In assay [1], the “T∆S” value turned out to be 9.2 kJ/mol, the “∆G” value is -24.7 ± 0.084 kJ/mol, the “∆H” value was -15.5 ± 0.17 kJ/mol and the TΔS was 10.9 kJ/mol. In assay [1], this molecule returned a ΔG of -24.9 ± 0.13 kJ/mol and a ΔH of -14 ± 0.25 kJ/mol.
For `CC(C)C[C@H](NC(=O)[C@H](CC(N)=O)NC(=O)[C@@H]1CCCN1C(=O)[C@H](CC(C)C)NC(=O)[C@H](COP(=O)(O)O)NC(=O)[C@H](C)NC(=O)[C@H](CO)NC(=O)[C@H](CCCCN)NC(=O)[C@H](CCCNC(=N)N)NC(=O)[C@@H]1CCCN1C(=O)[C@@H]1CCCN1C(=O)[C@@H](NC(=O)[C@@H](N)CCCCN)[C@@H](C)O)C(=O)O` [Cby 13-mer S22P] (H-KTPPRKSA[pS]LPNL-OH), the “n (binding stoichiometry of monomeric 14-3-3 and Cby peptide)” value in assay [1] (setting [3]) is on record as 1.06. Further, in assay [1] (setting [4]), the “n (binding stoichiometry of monomeric 14-3-3 and Cby peptide)” value came out at 1.02. For the same molecule, in assay [1], the “T∆S” value was 13.9 kJ/mol, the “∆G” value is -33.6 ± 0.084 kJ/mol, the “∆H” value was -19.7 ± 0.042 kJ/mol and the TΔS is 14.6 kJ/mol. In assay [1], this molecule returned a ΔG of -34 ± 0.084 kJ/mol and a ΔH of -19.4 ± 0.042 kJ/mol.

B1: Cby 18-mer L24A (phosphorylated) (peptide)
peptide: KTPPRKSA[pS]LSNAHSLDR
notes: Chibby (Cby), human, residues 12-29 with L24A; Not in the methods' list of peptides; also called Cby L24A 18-mer; source: synthetic peptide
Take B1: in assay [2], binding was characterised by a dissociation constant (Kd) of 21.3 µM, the dH was -6.53 ± 0.209 kJ/mol and the “stoichiometry N” value amounted to 0.99.

B2: pCby S22P 13-mer (peptide)
peptide: KTPPRKSA[pS]LPNL
notes: Chibby (Cby), human, residues 12-24 with S22P; free NH2 and COOH ends; also called Cby 13-mer S22P; source: synthetic peptide, bought: TUFTS University Core Facility
B2: in assay [2], binding was characterised by a dissociation constant (Kd) of 1.1 µM, the dH was -19.41 ± 0.0418 kJ/mol and the “stoichiometry N” value turned out to be 1.06.

B3: pCby 11-mer (peptide)
peptide: KTPPRKSA[pS]LS-NH2
modifications: N-terminus assumed
SMILES: CC(C)C[C@H](NC(=O)[C@H](COP(=O)(O)O)NC(=O)[C@H](C)NC(=O)[C@H](CO)NC(=O)[C@H](CCCCN)NC(=O)[C@H](CCCNC(=N)N)NC(=O)[C@@H]1CCCN1C(=O)[C@@H]1CCCN1C(=O)[C@@H](NC(=O)[C@@H](N)CCCCN)[C@@H](C)O)C(=O)N[C@@H](CO)C(N)=O
notes: Chibby (Cby), human, residues 12-22; free NH2 end; source: synthetic peptide, bought: TUFTS University Core Facility
In the case of B3, in assay [2], binding was characterised by a dissociation constant (Kd) of 17.5 µM, the dH was -13.64 ± 0.0837 kJ/mol and the “stoichiometry N” value was 0.95.

B4: pCby 7-mer (peptide)
peptide: Ac-RKSA[pS]LS-NH2
SMILES: CC(=O)N[C@@H](CCCNC(=N)N)C(=O)N[C@@H](CCCCN)C(=O)N[C@@H](CO)C(=O)N[C@@H](C)C(=O)N[C@@H](COP(=O)(O)O)C(=O)N[C@@H](CC(C)C)C(=O)N[C@@H](CO)C(N)=O
notes: also called 16RKSA(pS)LS22; pCby WT 7-mer; source: synthetic peptide, bought: TUFTS University Core Facility
As for B4, in assay [2], the dissociation constant (Kd) is 43.5 µM, the dH was -14 ± 0.251 kJ/mol and the “stoichiometry N” value came out at 1.01.

B5: pCby S22P 7-mer (peptide)
peptide: Ac-RKSA[pS]LP-NH2
SMILES: CC(=O)N[C@@H](CCCNC(=N)N)C(=O)N[C@@H](CCCCN)C(=O)N[C@@H](CO)C(=O)N[C@@H](C)C(=O)N[C@@H](COP(=O)(O)O)C(=O)N[C@@H](CC(C)C)C(=O)N1CCC[C@H]1C(N)=O
notes: Chibby (Cby), human, residues 16-22 with S22P; also called Cby 7-mer S22P; 16RKSA(pS)LP22; source: synthetic peptide, bought: TUFTS University Core Facility
With B5, in assay [2], the Kd is 2.9 µM, the dH was -25.77 ± 0.0418 kJ/mol and the “stoichiometry N” value turned out to be 1.03.
